Results taken from the supplement of paper PMC13380429.

Assays:
Conditions in all cases: 72 h
Vero E6 [1] = assay: cell viability relative to DMSO; higher = less toxic
U2OS [2] = assay: as above
Caco-2 [3] = assay: as above
Calu-3 [4] = assay: as above
HepG2 [5] = assay: as above
Vero E6 [6] = assay: drug sensitivity score (DSS) for viability; higher = more toxic; extreme values may be limits of the assay
U2OS [7] = assay: as above
Caco-2 [8] = assay: as above
Calu-3 [9] = assay: as above
HepG2 [10] = assay: as above
Vero E6 [11] = assay: relative viability EC50 (midpoint between 100% and the lowest measured viability); higher = less toxic
Calu-3 [12] = assay: as above
HepG2 [13] = assay: as above
U2OS [14] = assay: as above
Caco-2 [15] = assay: as above

SMILES | cell viability (Vero E6 [1]; 1 nM) | cell viability (Vero E6 [1]; 10 nM) | cell viability (Vero E6 [1]; 100 nM) | cell viability (Vero E6 [1]; 1000 nM) | cell viability (Vero E6 [1]; 10000 nM) | cell viability (U2OS [2]; 1 nM) | cell viability (U2OS [2]; 10 nM) | cell viability (U2OS [2]; 100 nM) | cell viability (U2OS [2]; 1000 nM) | cell viability (U2OS [2]; 10000 nM) | cell viability (Caco-2 [3]; 1 nM) | cell viability (Caco-2 [3]; 10 nM) | cell viability (Caco-2 [3]; 100 nM) | cell viability (Caco-2 [3]; 1000 nM) | cell viability (Caco-2 [3]; 10000 nM) | cell viability (Calu-3 [4]; 1 nM) | cell viability (Calu-3 [4]; 10 nM) | cell viability (Calu-3 [4]; 100 nM) | cell viability (Calu-3 [4]; 1000 nM) | cell viability (Calu-3 [4]; 10000 nM) | cell viability (HepG2 [5]; 1 nM) | cell viability (HepG2 [5]; 10 nM) | cell viability (HepG2 [5]; 100 nM) | cell viability (HepG2 [5]; 1000 nM) | cell viability (HepG2 [5]; 10000 nM) | drug sensitivity score (Vero E6 [6]) | drug sensitivity score (U2OS [7]) | drug sensitivity score (Caco-2 [8]) | drug sensitivity score (Calu-3 [9]) | drug sensitivity score (HepG2 [10]) | relative viability EC50 (Vero E6 [11]) | relative viability EC50 (Calu-3 [12]) | relative viability EC50 (HepG2 [13]) | relative viability EC50 (U2OS [14]) | relative viability EC50 (Caco-2 [15])
Fc1ccc(C(OCCN2CCN(CCCc3ccccc3)CC2)c2ccc(F)cc2)cc1 [vanoxerine] | 107% | 104% | 104% | 97.1% | 35.3% | 106% | 102% | 103% | 102% | 72.4% | 103% | 93.2% | 99.9% | 93.1% | 50.3% | 102% | 94.6% | 102% | 98.9% | 81.2% | 102% | 102% | 102% | 104% | 11% | 3.9 | 1 | 3.8 | 0.6 | 4.6 | 2.82 µM | > 10 µM | 3.42 µM | – | –
Nc1nccc2c1ncn2[C@@H]1O[C@H](CO)[C@@H](O)[C@@H]1O [3-deazaadenosine] | 87.4% | 100% | 90.8% | 92.8% | 95.1% | 99.9% | 99.4% | 97.7% | 103% | 95.8% | 89.8% | 101% | 97.9% | 89.2% | 97% | – | – | – | – | – | 97.9% | 103% | 95.6% | 97.3% | 96.1% | 0 | 0 | 0 | – | 0 | > 10 µM | – | > 10 µM | > 10 µM | > 10 µM
COc1ccc(OC)c(CN(C(C)=O)c2cc(F)ccc2Oc2ccccc2)c1 [DAA-1106] | 102% | 99% | 103% | 107% | 101% | 102% | 107% | 100% | 96.5% | 93.6% | 93.4% | 112% | 93.1% | 108% | 71.4% | 103% | 102% | 93.7% | 98.5% | 98.1% | 102% | 105% | 99.2% | 95.7% | 96% | 0 | 0 | 0.9 | 0 | 0 | > 10 µM | > 10 µM | > 10 µM | > 10 µM | –
COC(=O)N1CC[C@@H]2[C@H]1CCC[C@@]2(O)C#Cc1cccc(C)c1 [mavoglurant] | 104% | 101% | 106% | 104% | 97.4% | 103% | 99.9% | 102% | 101% | 95.8% | 110% | 120% | 100% | 98.4% | 108% | – | – | – | – | – | 102% | 107% | 95.5% | 91.8% | 114% | 0 | 0 | 0 | – | 0 | > 10 µM | – | > 10 µM | > 10 µM | > 10 µM
Cc1ccc(C(=O)Cn2c3c(sc2=N)CCCC3)cc1 [pifithrin-alpha] | 98.9% | 97.2% | 100% | 98.9% | 96.1% | 96.6% | 97.5% | 92.9% | 94.4% | 93.5% | 102% | 89.9% | 97.1% | 99.3% | 90.1% | – | – | – | – | – | 106% | 97.3% | 101% | 100% | 99% | 0 | 0 | 0 | – | 0 | > 10 µM | – | > 10 µM | > 10 µM | > 10 µM
O=C(NC1(c2ccccc2)CC1)c1c(CN2CCC(N3CCCCC3)CC2)c(-c2cccc(C(F)(F)F)c2)nc2cc(Br)ccc12 | 93.3% | 98.3% | 102% | 99.3% | 38.4% | 98.5% | 95.1% | 101% | 96% | 15.7% | 95.4% | 88.3% | 112% | 98.8% | 55.2% | 97.1% | 90.2% | 96% | 85.8% | 1.2% | 93.6% | 101% | 104% | 102% | 45.4% | 3.4 | 5.2 | 2.5 | 7.8 | 2.7 | 3.09 µM | 2.02 µM | 3.4 µM | 2.81 µM | –
N#Cc1c(-c2ccccc2)cc(-c2cc(Br)ccc2O)[nH]c1=O [TCS-PIM-1-1] | 96.9% | 101% | 95.5% | 96% | 93.1% | 99% | 96.3% | 102% | 97.6% | 93.9% | 96.7% | 101% | 104% | 97.5% | 88.8% | – | – | – | – | – | 94.9% | 99.4% | 99.7% | 94.5% | 99.2% | 0 | 0 | 0.1 | – | 0 | > 10 µM | – | > 10 µM | > 10 µM | > 10 µM
CN1CCN(c2ccc(OC(F)(F)F)c(Nc3ncc4c(n3)-c3c(c(C(N)=O)nn3CCO)CC4)c2)CC1 | 102% | 112% | 99.7% | 52.4% | 48.3% | 108% | 103% | 98.2% | 46.5% | 41.3% | 104% | 94.9% | 77.3% | 52% | 62.3% | 100% | 105% | 78.7% | 84.9% | 84.7% | 105% | 95% | 70.4% | 16.7% | 15.8% | 8.8 | 10 | 11 | 5.1 | 18.8 | 0.395 µM | > 10 µM | 0.139 µM | 0.394 µM | –
